Measured values published in publication PMC10548421, “Anticancer Potential of Diruthenium Complexes with Bridging Hydrocarbyl Ligands from Bioactive Alkynols” (Inorganic Chemistry, 2023).
Where two headings read alike, the source gives them in different places.

How the values were obtained:
A2780 cells [1] = experiment: Cell cycle analysis (flow cytometry, PI); assay type: cell-based, human; settings: A2780, 4 μM, 24 h
Method: (§1) The A2780 ovarian carcinoma cell line was received from Merck (reference 93112519–1VL) and cultured at 37 °C in an environment with 5% CO2. The cultivation was carried out in complete cell culture medium (RPMI-1640 medium, Merck), which was supplemented with 10% fetal bovine serum (FBS, Merck), 1% L-glutamine (Merck) and 1% penicillin–streptomycin–neomycin (PSN, Merck). For the flow cytometry experiments, three independent duplicates were analyzed using a BD FACSVerse flow cytometer (Becton Dickinson, USA). At least 5 × 10^3 events were recorded for each sample. The same procedure was replicated for the experiments described below. Solutions of the complexes were formulated using the stock solutions (Section 5.1).
These studies were conducted on A2780 cells using the BD Cycletest Plus DNA kit (from Becton Dickinson, USA). Thus, cells were seeded in 96-well plates (10^4 cells/well) and treated with 4 μM complexes 3a and 3b for 24 h. Following the incubation period, cells underwent a series of procedural steps. Initially, they were rinsed using PBS (0.1 M, pH 7.4). […]

A2780 cells [2] = experiment: Mitochondrial membrane potential analysis (MITO-ID); assay type: cell-based, human; settings: A2780, complexes 4 μM, cisplatin 15 μM, 24 h
Method: as §1
To investigate the effects on mitochondrial membrane potential of A2780 cells, an MITO-ID Membrane potential detection kit (Enzo Life Sciences, USA) was used. Cells were seeded in a 24-well (5 × 10^4 cells/well), and then incubated with 4 μM solution of complexes for 24 h. The supernatant was collected, cells were washed with warm PBS, detached using 0.25% trypsin-EDTA (Gibco) and resuspended in a cell culture medium. Then, samples were stained with diluted MITO-ID MP Detection Reagent (according to the protocol) at RT for 15 min, prior to flow cytometry analysis. A positive control was established by treating the samples with 2 μM carbonyl cyanide 3-chlorophenylhydrazone.

[3] = system: PC-3 human prostate carcinoma cell line; experiment: MTT in vitro cytotoxicity, PC-3; assay type: cell-based; settings: incubation 24 h, mean ± SD
Method: (§2) The cytotoxicity assessment was conducted on various human cancer cell lines, including A2780 ovarian carcinoma, A2780R cisplatin-resistant ovarian carcinoma, MCF-7 breast, HOS osteosarcoma, A549 epithelial lung, PANC-1 pancreatic, Caco-2 colorectal, PC-3 prostate adenocarcinoma, and HeLa cervical cell lines. Additionally, the assessment extended to a normal human fetal fibroblast cell line (MRC-5). Cells were obtained from ATCC collection and cultivated according to the producer’s instructions. Stock solutions of the compounds were prepared in DMF immediately before application, and diluted with H2O to achieve the final concentration of 0.1% v/v DMF.[99] The culture media were enriched with 10% fetal calf serum. Subsequently, the cells were exposed to the tested compounds, vehicle (0.1% v/v DMF) and Triton X-100 (1% v/v), during incubation. The conventional MTT assay was carried out following different incubation periods (Tables 5-6). The absorbance was measured at 570 nm by using a spectrophotometer (Infinite M200, Schoeller Instruments, Prague, Czech Republic). The obtained data are presented as the percentage of cell viability with 100% representing negative control treatment (0.1% v/v DMF) and 0% representing the positive control (Triton X-100). The half-maximal inhibitory concentrations (IC50) were determined from dose–response curves using GraphPad Prism 6 software (GraphPad Software, San Diego, USA).

A2780 cells [4] = experiment: Autophagy analysis (CYTO-ID); assay type: cell-based, human; settings: A2780, complexes 4 μM, cisplatin 15 μM, 24 h
Method: as §1
The potential induction of autophagy by 3a and 3b in A2780 cells was studied with the kit CYTO-ID Autophagy Detection 2.0 (from Enzo Life Sciences, USA), following the protocol provided by the manufacturer. […] The supernatant was collected, cells were washed with warm PBS, detached using 0.25% trypsin-EDTA (Gibco) and resuspended in a cell culture medium. Diluted CYTO-ID Green stain solution (according to the protocol) was used to stain the samples. Following incubation for 30 min in a light-protected environment, the samples were washed with PBS (phosphate-buffered saline). Subsequently, a flow cytometry experiment was conducted. A mixture of chloroquine (10 μM) and rapamycin (0.5 μM) was used as positive control.

[5] = system: PANC-1 human pancreatic carcinoma cell line; experiment: MTT in vitro cytotoxicity, PANC-1; assay type: cell-based; settings: incubation 24 h, mean ± SD
Method: as §2

[6] = system: A2780 human ovarian carcinoma cell line; experiment: MTT in vitro cytotoxicity, A2780; assay type: cell-based
Method: as §2

[7] = system: MCF-7 breast adenocarcinoma cell line; experiment: MTT in vitro cytotoxicity, MCF-7; assay type: cell-based, human; settings: incubation 24 h, mean ± SD
Method: as §2

[8] = system: A2780R cisplatin-resistant human ovarian carcinoma cell line; experiment: MTT in vitro cytotoxicity, A2780R; assay type: cell-based; settings: incubation 24 h, mean ± SD
Method: as §2

[9] = Stability in DMEM/CH3OH solution (UV–vis); assay type: physicochemical; settings: ca. 5:1 v/v
Method: […] The percentage of remaining complex in the solution was calculated by considering the change in absorbance at the characteristic wavelength. The identical procedure was employed to evaluate stability in MeOH and DMEM (about 1:5 v/v) solutions. DMEM stands for the cell culture medium (containing 1000 mg/L glucose and L-glutamine, excluding sodium bicarbonate and phenol red; reference D2902-Merck).

[10] = system: A549 human lung adenocarcinoma cell line; experiment: MTT in vitro cytotoxicity, A549; assay type: cell-based; settings: incubation 24 h, mean ± SD
Method: as §2

A2780 cells [11] = experiment: Apoptosis, Annexin V/propidium iodide flow cytometry; assay type: cell-based, human; settings: A2780, 4 μM, 24 h
Method: as §1
Apoptosis assay was performed using an Annexin V-FITC/PI commercial kit (V13242, Thermo Fisher Scientific, USA), while caspase 3/7 activation assay was performed with a CellEvent Caspase-3/7 Green Flow Cytometry Assay Kit (C10427, Thermo Fisher Scientific, USA). A2780 cells were seeded in 24-well plates at a density of 5 × 10^4 cells per well; after 24 h, the cells were exposed to 4 μM solution of the selected complex for 24 h. […] The supernatant was collected, cells were washed with PBS (0.1 M, pH 7.4), and trypsin was added (0.25% trypsin-EDTA, GibcoTM). Finally, complete cell culture medium was added to stop the trypsinization, and a final volume of 500 μL was divided into two 250 μL aliquots, following the protocol provided by the manufacturer. Samples were centrifuged, treated with the respective buffers, and then incubated in the dark at room temperature for 10 min (Annexin V-FITC/PI) or at 37 °C for 30 min (CellEventTM Caspase-3/7 Green Detection Reagent).

[12] = system: HeLa human cervical carcinoma cell line; experiment: MTT in vitro cytotoxicity, HeLa; assay type: cell-based; settings: incubation 24 h, mean ± SD
Method: as §2

[13] = MTT, incubation 24 h, mean ± SD (Table 5), read-out: IC50 A2780
[14] = time-course experiment (Table 6), 24 h, mean ± SD, read-out: IC50 A2780, incubation time 24 h
[15] = time-course experiment (Table 6), 48 h, mean ± SD, read-out: IC50 A2780, incubation time 48 h
[16] = time-course experiment (Table 6), 72 h, mean ± SD, read-out: IC50 A2780, incubation time 72 h

Compound | effect on the cell cycle (in words) (A2780 cells [1]) | cell count with damaged mitochondrial membranes (in words) (A2780 cells [2]) | IC50 [3] [µM] | autophagy level (in words) (A2780 cells [4]) | IC50 [5] [µM] | IC50 [6, 13] [µM] | IC50 [6, 14] [µM] | IC50 [6, 15] [µM] | IC50 [6, 16] [µM] | IC50 [7] [µM] | IC50 [8] [µM] | residual complex % in DMEM/CH3OH ([9]; 2 h) [%] | residual complex % in DMEM/CH3OH ([9]; 18 h) [%] | IC50 [10] [µM] | proapoptotic effect, Annexin V/PI (in words) (A2780 cells [11]) | IC50 [12] [µM]
CC12CCC3c4ccc(O)cc4CCC3C1CCC2=C=[CH][Ru]1(=[C]=O)([CH]2C=CC=C2)[C](=O)[Ru+]1(=[C]=O)[CH]1C=CC=C1.F[B-](F)(F)F (mixture of isomers) [3b, [Ru2Cp2(CO)3{μ–η^1:η^2-CH=C=(estradiolylidene)}]BF4] | strong depression of the cell number in the synthetic (S) phase and second gap and mitotic phases (G2/M) | notable augmentation | 13.4 ± 1.8 | only moderately | 19.8 ± 2.3 | 3.4 ± 0.6 | 4 ± 0.7 | 3 ± 0.3 | 2.8 ± 0.2 | 11.6 ± 1.5 | 4.6 ± 1.3 | 88 | 42 | 16.1 ± 1.3 | much less effective than that of cisplatin | 12.5 ± 1.1
F[B-](F)(F)F.O=[C]=[Ru+]1([CH]2C=CC=C2)[C](=O)[Ru]1(=[C]=O)([CH]=C=C1CCCC1)[CH]1C=CC=C1 (centres unmarked) [3a, [Ru2Cp2(CO)3{μ–η^1:η^2-CH=C=(cyclopentylidene)}]BF4] | strong depression of the cell number in the synthetic (S) phase and second gap and mitotic phases (G2/M) | notable augmentation | 22.2 ± 2.4 | not appreciable | 28.4 ± 3.9 | 4.2 ± 0.9 | 3.8 ± 0.7 | 3.2 ± 0.2 | 3.1 ± 0.2 | 16.2 ± 1.7 | 6.4 ± 1.9 | 94 | 12 | 25.3 ± 1.9 | much less effective than that of cisplatin | 17.5 ± 2.9
